Test results taken from the supplement of paper PMC10307832.

Legend:
Test in all cases: relative viability (nuclei count vs DMSO), 5 days (fraction); higher = more cells survive
[1] = compound: C1CC(C1)(C(=O)O)C(=O)O.[NH2-].[NH2-].[Pt+2] [Carboplatin] + CC(C)C[C@H](NC(=O)[C@H](Cc1ccccc1)NC(=O)c1cnccn1)B(O)O [Bortezomib] (partner 0.002 µM)
Procedure, shortened: (§1)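 Relative viability is defined as nuclei in treated wells over nuclei in vehicle wells. Duplicate plates were run and medians reported. Lung cancer cell lines in 1536-well plates were dosed by pin tool one day after seeding, with one drug or with a fixed anchor-drug dose plus five library-drug doses (not always all listed) in √10 steps, and nuclei were counted after 5 days.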

[2] = compound: NS(=O)(=O)OC[C@@H]1C[C@@H](n2ccc3c(N[C@H]4CCc5ccccc54)ncnc32)C[C@@H]1O [MLN4924] + Nc1nc2[nH]cc(CCc3ccc(C(=O)N[C@@H](CCC(=O)O)C(=O)O)cc3)c2c(=O)[nH]1 [Pemetrexed] (partner 0.2 µM)
Procedure, shortened: as §1

[3] = compound: C1CC(C1)(C(=O)O)C(=O)O.[NH2-].[NH2-].[Pt+2] [Carboplatin] + C[C@]1(O)C[C@@H](c2nc(-c3ccc4ccc(-c5ccccc5)nc4c3)c3c(N)nccn32)C1 [Linsitinib] (partner 1 µM)
Procedure, shortened: as §1

[4] = compound: CC[C@H](C)N1C=C(C2=C(C=C(C=C21)C3=CN=C(C=C3)N4CCNCC4)C(=O)NCC5=C(C=C(NC5=O)C)C)C [GSK126] + CC(=O)c1c(C)c2cnc(Nc3ccc(N4CCNCC4)cn3)nc2n(C2CCCC2)c1=O [Palbociclib] (partner 0.5 µM)
Procedure, shortened: as §1

Cell Line	relative viability ([1]; first compound 0.08 µM)	relative viability ([1]; first compound 0.253 µM)	relative viability ([1]; first compound 0.8 µM)	relative viability ([1]; first compound 2.53 µM)	relative viability ([1]; first compound 8 µM)	relative viability ([2]; first compound 0.04 µM)	relative viability ([2]; first compound 0.1265 µM)	relative viability ([2]; first compound 0.4 µM)	relative viability ([2]; first compound 1.265 µM)	relative viability ([2]; first compound 4 µM)	relative viability ([3]; first compound 0.08 µM)	relative viability ([3]; first compound 0.253 µM)	relative viability ([3]; first compound 0.8 µM)	relative viability ([3]; first compound 2.53 µM)	relative viability ([3]; first compound 8 µM)	relative viability ([4]; first compound 0.08 µM)	relative viability ([4]; first compound 0.253 µM)	relative viability ([4]; first compound 0.8 µM)	relative viability ([4]; first compound 2.53 µM)	relative viability ([4]; first compound 8 µM)
NCI-H441	0.239	0.777	0.618	0.459	0.364	0.248	0.222	0.234	0.139	0.187	0.608	0.506	0.662	0.544	0.573	0.193	0.232	0.21	0.243	0.257
NCI-H2023	1.06	1.18	1.02	0.717	0.204	0.219	0.234	0.123	0.0635	0.09	0.745	0.644	0.73	0.576	0.205	0.505	0.442	0.349	0.442	0.399
NCI-H1666	0.842	0.776	0.789	0.774	0.724	0.734	0.742	0.645	0.409	0.488	0.823	0.879	0.747	0.794	0.458	0.642	0.613	0.6	0.636	0.692
HCC-15	1.1	1.05	0.999	0.914	0.795	0.205	0.158	0.0806	0.0787	0.0939	0.9	0.892	0.888	0.812	0.7	0.759	0.855	0.692	0.573	0.671
NCI-H3122	1.07	1.02	1.01	0.944	0.96	0.202	0.219	0.17	0.155	0.138	0.947	1.01	0.991	1.08	0.973	0.225	0.181	0.181	0.183	0.187
201T	1.18	1.11	1.13	1.14	1.06	0.291	0.312	0.315	0.287	0.257	1.06	1.04	0.976	1	0.962	0.442	0.356	0.378	0.387	0.382
RERF-LC-KJ	1.22	1.2	1.19	1.18	0.937	0.523	0.426	0.18	0.208	0.224	0.913	0.895	0.97	0.807	0.726	1.15	1.27	1.02	1.04	1.09
NCI-H1734	0.97	0.885	0.921	0.888	0.849	0.497	0.514	0.252	0.128	0.125	0.823	0.904	0.909	0.876	0.851	0.384	0.348	0.342	0.375	0.333
NCI-H1651	0.92	0.967	0.927	0.872	0.761	0.632	0.693	0.703	0.509	0.171	0.918	1.06	0.82	0.9	0.509	0.493	0.512	0.515	0.537	0.514
PC-14	0.846	0.845	0.757	0.868	0.437	0.157	0.128	0.0989	0.0654	0.0612	0.979	0.931	0.939	0.921	0.55	0.517	0.505	0.539	0.566	0.469
NCI-H1915	0.984	1.01	0.954	0.845	0.487	0.625	0.66	0.479	0.144	0.176	1.07	1.11	1.04	1.01	0.723	0.554	0.496	0.516	0.56	0.583
NCI-H1975	0.345	0.462	0.462	0.419	0.307	0.284	0.331	0.278	0.272	0.209	0.894	0.986	0.999	1.02	0.903	0.633	0.591	0.636	0.561	0.627
BEN	0.837	0.889	0.988	0.898	0.782	0.602	0.884	0.455	0.28	0.227	1.01	1.05	0.722	0.748	0.777	0.482	0.41	0.5	0.506	0.473
EPLC-272H	0.86	1.1	0.972	1.01	0.877	0.242	0.195	0.0979	0.128	0.155	1.17	1.32	1.01	1.11	1.01	0.344	0.324	0.33	0.374	0.301
NCI-H2228	1.05	1.35	1.07	0.905	0.467	0.377	0.32	0.213	0.0983	0.119	0.601	1.08	0.719	0.653	0.641	0.985	0.519	0.713	0.674	0.967
NCI-H661	0.915	0.856	0.716	0.613	0.763	0.773	0.77	0.494	0.426	0.44	0.555	0.705	0.529	0.44	0.541	0.43	0.419	0.414	0.43	0.431

Cell Line	relative viability ([1]; first compound 0.08 µM)	relative viability ([1]; first compound 0.253 µM)	relative viability ([1]; first compound 0.8 µM)	relative viability ([1]; first compound 2.53 µM)	relative viability ([1]; first compound 8 µM)	relative viability ([2]; first compound 0.04 µM)	relative viability ([2]; first compound 0.1265 µM)	relative viability ([2]; first compound 0.4 µM)	relative viability ([2]; first compound 1.265 µM)	relative viability ([2]; first compound 4 µM)	relative viability ([3]; first compound 0.08 µM)	relative viability ([3]; first compound 0.253 µM)	relative viability ([3]; first compound 0.8 µM)	relative viability ([3]; first compound 2.53 µM)	relative viability ([3]; first compound 8 µM)	relative viability ([4]; first compound 0.08 µM)	relative viability ([4]; first compound 0.253 µM)	relative viability ([4]; first compound 0.8 µM)	relative viability ([4]; first compound 2.53 µM)	relative viability ([4]; first compound 8 µM)
LU99A	1.01	1.23	1.04	0.968	0.757	0.185	0.175	0.18	0.189	0.129	0.621	0.583	0.508	0.464	0.417	0.444	0.439	0.379	0.39	0.451
NCI-H2405	1.03	1	0.994	0.912	0.89	0.806	0.863	0.44	0.187	0.193	0.957	0.871	0.882	0.833	0.842	0.586	0.507	0.537	0.557	0.523
NCI-H2009	1.12	0.938	0.945	0.918	0.671	0.941	0.884	0.218	0.133	0.0755	1.21	1.14	1.09	1.09	0.807	0.183	0.176	0.181	0.257	0.322
HOP-62	0.922	0.87	0.593	0.668	0.603	0.235	0.175	0.0617	0.0458	0.0811	0.982	0.996	0.949	0.947	0.801	0.501	0.372	0.468	0.398	0.444
COR-L 105	0.89	0.745	0.832	0.794	0.424	0.901	0.914	0.557	0.305	0.363	0.88	1.02	0.681	0.792	0.572	0.42	0.423	0.421	0.377	0.415
PC-3 [JPC-3]	0.928	0.81	0.748	0.798	0.742	1.1	1.26	0.288	0.311	0.377	0.953	0.942	0.888	0.919	0.931	0.516	0.565	0.565	0.488	0.485
NCI-H2347	1.22	0.815	1.13	1.05	0.768	0.376	0.438	0.369	0.396	0.36	1.05	1.04	0.967	0.893	0.841	0.46	0.385	0.469	0.422	0.439
SW 1573	1.09	1	1.12	1.05	0.808	0.899	0.901	0.249	0.0884	0.0765	0.757	0.621	0.642	0.738	0.557	0.496	0.472	0.435	0.361	0.403
NCI-H838	1.06	0.858	0.869	0.835	0.82	0.225	0.2	0.188	0.173	0.164	1.03	1.09	0.961	0.958	1	0.264	0.223	0.202	0.212	0.234
HCC-44	0.968	0.882	0.833	0.864	0.785	0.653	0.62	0.484	0.455	0.443	0.668	0.685	0.606	0.478	0.543	0.96	1.04	1.01	0.916	0.894
HCC-78	0.561	0.502	0.383	0.497	0.508	0.882	0.899	0.918	0.881	0.892	0.509	0.461	0.416	0.46	0.511	0.473	0.38	0.497	0.461	0.492
A-427	0.984	1.11	0.904	0.905	1.01	0.611	0.466	0.333	0.247	0.273	1.07	1.08	1.03	1.02	1.12	0.534	0.519	0.517	0.5	0.491
CAL-12T	1.28	0.826	0.972	1.07	0.911	1.06	1.1	0.67	0.636	0.224	0.803	0.913	0.838	0.809	0.797	0.491	0.458	0.515	0.416	0.41
NCI-H460	1.22	1.06	0.895	0.812	0.174	0.0658	0.0623	0.0708	0.059	0.0457	0.907	0.803	0.739	0.445	0.184	0.171	0.199	0.154	0.148	0.173
NCI-H2085	1.24	1.2	1.03	1	0.82	0.916	0.91	0.888	0.882	0.451	0.943	0.967	0.845	0.858	0.764	0.477	0.456	0.466	0.453	0.47
NCI-H650	0.966	0.852	0.868	0.764	0.388	0.921	0.471	0.213	0.15	0.165	1.15	0.859	0.982	0.848	0.503	0.349	0.315	0.331	0.322	0.352
